According to publication PMC10762662, “An orally-available monovalent SMAC mimetic compound as a broad-spectrum antiviral” (Protein & Cell, 2023):

Assays:
Assay in all cases: BIR3 domain binding IC50 (assay format not stated)
cIAP1 = biological target: T1, cIAP1 (Homo sapiens, UniProt Q13490)
T1 construct: gene BIRC2; BIR3 domain

XIAP = biological target: T2, XIAP (Homo sapiens, UniProt P98170)
T2 construct: BIR3 domain

cIAP2 = biological target: T3, cIAP2 (Homo sapiens, UniProt Q13489)
T3 construct: gene BIRC3; BIR3 domain
T3 sequence (Q13489 250-317 limits assumed): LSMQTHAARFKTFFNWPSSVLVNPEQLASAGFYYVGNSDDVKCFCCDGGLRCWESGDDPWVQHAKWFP

T1 sequence (Q13490 264-331 limits assumed): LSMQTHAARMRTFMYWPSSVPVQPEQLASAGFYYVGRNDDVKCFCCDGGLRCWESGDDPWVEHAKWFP
T2 sequence (P98170 241-356 limits assumed): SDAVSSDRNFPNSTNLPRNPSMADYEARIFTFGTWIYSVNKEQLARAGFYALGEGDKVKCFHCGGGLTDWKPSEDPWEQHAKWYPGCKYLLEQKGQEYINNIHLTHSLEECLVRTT

IC50 (cIAP1): 0.9 ± 0.15 nM
IC50 (XIAP): 273 ± 82.5 nM
IC50 (cIAP2): 17.1 ± 5.37 nM
SMILES: CN[C@@H](C)C(=O)Nc1ccc(-c2c(C)nc3ccccn23)c(C#Cc2ccc3ncccc3c2)n1 [BI-82]
